Literature values in patent US20210121562A1, “PHARMACEUTICAL COMPOSITION FOR TREATMENT AND/OR PREVENTION OF CANCER” (TORAY INDUSTRIES, INC., priority 2018, published 2021).

Key:
[1] = system: extramammary Paget's disease; conditions: supportive care for extramammary Paget's disease
basal cell cancer = basal cell cancer in patients having histories of rituximab administration for non-Hodgkin lymphoma

CC(C)Cn1cnc2c(N)nc3ccccc3c21 [imiquimod, 4-amino-1-(2-methylpropyl)-1H-imidazo[4,5-c]quinoline]
cases completely responded [1]: 7 out of 9
antitumor effect of imiquimod (basal cell cancer): attenuated
